The values that follow are results of earlier work, collected in patent EP3196312B1, “EFFICIENT CONVERSION OF METHYLGLYOXAL INTO HYDROXYACETONE USING NOVEL ENZYMES AND APPLI CATIONS THEREOF” (Metabolic Explorer, priority 2016, dated 2017).

What is called Km is the concentration of substrate that gives half-maximal velocity.

Data set [1] addresses T1, Escherichia coli YqhD (alcohol dehydrogenase, Uniprot Q46856), wild type, SEQ ID NO: 7 (Escherichia coli, UniProt Q46856).
T1 sequence (Q46856 1-387): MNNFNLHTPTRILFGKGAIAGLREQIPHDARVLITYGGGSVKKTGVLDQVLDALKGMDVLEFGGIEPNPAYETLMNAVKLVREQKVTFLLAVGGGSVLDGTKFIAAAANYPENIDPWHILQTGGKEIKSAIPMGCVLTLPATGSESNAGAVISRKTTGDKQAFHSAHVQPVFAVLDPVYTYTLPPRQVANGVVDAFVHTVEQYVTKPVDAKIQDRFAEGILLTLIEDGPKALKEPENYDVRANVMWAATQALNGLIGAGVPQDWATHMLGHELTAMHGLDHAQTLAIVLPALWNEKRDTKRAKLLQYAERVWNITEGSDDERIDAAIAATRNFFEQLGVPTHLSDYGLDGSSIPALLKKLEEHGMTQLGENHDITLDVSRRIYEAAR
Particulars: toward methylglyoxal and NADPH; as cited from WO 2011/012697.

Data set [2] addresses T2, Escherichia coli YqhD variant YqhD*(G149E), SEQ ID NO: 9 (Escherichia coli, UniProt Q46856, G149E).
T2 sequence (Q46856 1-387 G149E): T1 sequence (Q46856 1-387)
Particulars: toward methylglyoxal and NADPH; as cited from WO 2011/012697.

Take `CC(=O)C=O` [methylglyoxal]: the Km in data set [1] was 2090 µM; in data set [2] it was 2920 µM.
